Common to all, as to assay type: cell-based
The test system of experiment [1] is Escherichia coli(δ). The experiment is described as follows: Production by secretion in microbial culture system, cellulase expressing strain (Table 5). Set-up: key to Turbidity: (measured turbidity of diluted culture − blank) × dilution rate. The conditions noted are these: for Dried cell density: obtained from turbidity; for Quantitative value of produced recombinant protein: SDS-PAGE. The protocol: A bglC gene of Bacillus licheniformis was amplified by the PCR method using primers 9 and 10 (Table 4). After being treated with restriction enzymes NcoI and BamHI, a PCR amplified fragment was bound to an NcoI restriction enzyme site and a BamHI restriction enzyme site of a pET-22b plasmid (product of Novagen). Then, the plasmid was transformed into a BL21 (DE3) Escherichia coli strain (product of Novagen) to form Escherichia coli […] that expresses cellulase.
Overnight cultures (1 ml) of Escherichia coli (δ) obtained in Production Example 4 and Escherichia coli (ε) obtained in Production Example 5 were respectively prepared as Comparative Example 2 and Comparative Example 4. An amount of 0.5 ml of each was inoculated in 5 ml of an LB culture solution (containing 100 mg/L of ampicillin) and was shake-cultured at 30° C. for 3 hours. In this manner, pre-culture solutions were prepared. The pre-culture solutions were each inoculated in 50 mL of a culture solution (1.2 g of yeast extract (Nihon Pharmaceutical Co., Ltd.), 0.6 g of polypeptone (Nihon Pharmaceutical Co., Ltd.), 0.47 g of dipotassium phosphate, 0.11 g of monopotassium phosphate, 0.35 g of ammonium sulfate, 0.66 g of disodium phosphate 12-hydrate, 0.02 g of sodium citrate dihydrate, 0.2 g of glycerol, 1.5 g of lactalbumin hydrolysate, 0.3 g of a defoaming agent (Shin-Etsu Chemical Co., Ltd., “KM-70”), 1 mM magnesium sulfate, trace metal solution (18.9 μg of calcium chloride, 500 μg of iron chloride (III), 9.0 μg of zinc sulfate heptahydrate, 5.1 μg of copper sulfate, 6.7 μg of manganese chloride tetrahydrate, 4.9 μg of cobalt chloride, 200 μg of ethylene-diamine-tetraacetic acid tetrasodium salt), 100 mg/L ampicillin). Culturing was initiated with use of a microbial culture system (ABLE Corporation, product name “BioJr. 8”), while the pH value and the temperature were maintained at 6.8 and 30° C. After the culturing was initiated, 0.15 mL of 1M IPTG was added. After 14 hours from the initiation of culturing, instillation of a glycerin/protein solution (50% of glycerin, 50 g/L of lactalbumin hydrolysate, a 33 g/L defoaming agent (Shin-Etsu Chemical Co., Ltd., “KM-70”), 100 mg/L ampicillin) was started. The culturing was terminated after 48 hours from the initiation and the culture solution was recovered. The whole protein in the culture solution was analyzed by SDS-PAGE. Based on the obtained amount of the protein band, the recombinant protein was quantified.
The dried cell density at the termination of the culturing was determined by the following processes (1) to (5):
The dried cell density was determined by applying the measuring results in the process (5) and the process (1) and the volume (L) of the culture solution used in the process (2) to the following formula: Dried cell density (g/L)=([measuring result in process (5)]−[measuring result in process (1)])/0.1.
Performance of this processes for several times clarified the proportional relationship between the turbidity of the culture solution and the dried cell density. Therefore, the dried cell density was obtained from the measured turbidity in each of Comparative Examples 2 to 4 and Examples 2 to 14.
The turbidity of a culture solution that is same as the culture solution used in the measurement of the dried cell density was measured using a turbidimeter (Shimadzu Corporation, UV-1700) and 1 ml of quarts cell.
For measurement, the culture solution was diluted in saline to have an appropriate absorbance. The absorbance of the same culture solution (but not containing bacteria) diluted at the same dilution as above was set as a blank. The turbidity of the culture solution was calculated by using the following formula: Turbidity of culture solution=[(measured turbidity of diluted culture solution)−(measured turbidity of blank)]×dilution rate.
The dried cell density and the turbidity of the culture solution were plotted to construct a graph in FIG. 3. […]

For the next experiment, the system named is Shewanella putrefaciens. Kind of experiment: Production by secretion in microbial culture system, Shewanella (Table 6). Particulars: surfactant 1 wt %; for Dried cell density: after 48 hours culturing; for Quantitative value of produced recombinant protein: supernatant, protein band around 45 kDa, SDS-PAGE. On the procedure: An overnight culture solution (10 ml) of Shewanella putrefaciens was prepared and inoculated in 1 L of a culture solution (10 g of polypeptone (Nihon Pharmaceutical Co., Ltd.), 2 g of yeast extract (Nihon Pharmaceutical Co., Ltd.), 0.5 g of magnesium sulfate heptahydrate, 750 mL of Seawater (Daigo)) and was shake-cultured at 30° C. for 5 hours. In this manner a pre-culture solution was prepared. The pre-culture solution was inoculated in 10 L of a culture solution (200 g of polypeptone (Nihon Pharmaceutical Co., Ltd.), 40 g of yeast extract (Nihon Pharmaceutical Co., Ltd.), 10 g of magnesium sulfate heptahydrate, 7.5 L of Seawater (Daigo)). Culturing thereof was initiated with use of a microbial culture system (ABLE Corporation), while the pH value and the temperature were maintained at 7.3 and 30° C. After 48 hours from the initiation of culturing, the culture solution was recovered and centrifuged. The whole protein of the obtained supernatant fragment was analyzed by SDS-PAGE and the protein band around 45 kDa was quantified.
The dried cell density when the culturing is terminated was determined by the following processes (1) to (5):
The dried cell density was determined by assigning the measuring results in the process (5) and the process (1) and the volume (L) of the culture solution used in the process (2) to the following formula: Dried cell density (g/L)=([measuring result in process (5)]−[measuring result in process (1)])/0.1.
The same processes as in Comparative Example 5 were carried out except that, after culturing in the microbial culture system was initiated, the surfactant A-14 was added to the culture solution in an amount of 1% by weight on the basis of the weight of the culture solution.
The same processes as in Comparative Example 5 were carried out except that, after culturing in the microbial culture system was initiated, the surfactant A-7 was added to the culture solution in an amount of 1% by weight on the basis of the weight of the culture solution.

Experiment [2] deals with Escherichia coli(δ). The experiment is described as follows: Production by secretion in microbial culture system, cellulase expressing strain (Table 5). The conditions noted are these: SDS-PAGE.
[3] abbreviates: Comparative Example 3, surfactant 1 wt %, added earlier than in Example 2.
The mark [4] stands for this setting: Examples 2-11, surfactant 1 wt %, at termination of culturing.
Where [5] appears, read: Examples 2-11, surfactant 1 wt %, culturing terminated after 48 hours.
Where [6] appears, read: Examples 2-11, surfactant 1 wt %, supernatant of culture solution.
The mark [7] stands for this setting: Example 13, surfactant 0.1 wt %.

For `CCCCCCCCCCCCCCCC[N+](C)(C)C.[Cl-]` [A-14, Cetyl trimethyl ammonium chloride], the Turbidity with Escherichia coli(δ) [1] (setting [3]) is reported as 1.07; in the experiment on Escherichia coli(δ) [1] (setting [5]), 5.43. The “Dried cell density” value with Escherichia coli(δ) [1] (setting [3]) turned out to be 0.3 g/L; with Escherichia coli(δ) [1] (setting [4]), 1.52 g/L; with Shewanella putrefaciens, 0.23 g/L. Further, the “Quantitative value of produced recombinant protein” value (“Quantitative value” below) was less than 0.05 g/L with Escherichia coli(δ) [1] (Comparative Example 3, surfactant 1 wt %, added earlier than in Example 2, whole protein in culture solution); 0.06 g/L in the experiment with Escherichia coli(δ) [1] (setting [6]); less than 0.01 g/L in the experiment on Shewanella putrefaciens.

As to “Cured palm oil fatty acid amidopropyl dimethyl aminoacetate betaine [A-6]”, the Turbidity in the experiment with Escherichia coli(δ) [1] (setting [7]) is listed as 75.2; with Escherichia coli(δ) [1] (Example 14, surfactant 5 wt %), 52.1; with Escherichia coli(δ) [1] (setting [5]), 70.3. Moreover, the “Dried cell density” value in the experiment with Escherichia coli(δ) [1] (setting [7]) was 21.1 g/L; in the experiment with Escherichia coli(δ) [1] (Example 14, surfactant 5 wt %), 14.6 g/L; in the experiment on Escherichia coli(δ) [1] (setting [4]) it was 19.7 g/L. Besides, the “Quantitative value” value with Escherichia coli(δ) [2] (Example 13, surfactant 0.1 wt %, supernatant) is listed as 1.82 g/L; in the experiment on Escherichia coli(δ) [2] (Example 14, surfactant 5 wt %, supernatant) it was 1.53 g/L; in the experiment on Escherichia coli(δ) [2] (setting [6]), 2.35 g/L.

For “Polyoxyethylene(3 mol)tridecyl ether sodium acetate [A-1]”, the “Dried cell density” value in the experiment on Escherichia coli(δ) [1] (setting [4]) came out at 12.1 g/L. The compound further showed a Turbidity in the experiment on Escherichia coli(δ) [1] (setting [5]) of 43.2. The “Quantitative value” value with Escherichia coli(δ) [2] (setting [6]) was 1.01 g/L.

Take Sodium cocaminopropionate [A-7]: the “Dried cell density” value in the experiment with Escherichia coli(δ) [1] (setting [4]) is 22.1 g/L; in the experiment on Shewanella putrefaciens, 2.32 g/L. In the experiment on Escherichia coli(δ) [1] (setting [5]), this compound returned a Turbidity of 78.9. Further, the entries for the “Quantitative value” value in the experiment on Shewanella putrefaciens and in the experiment on Escherichia coli(δ) [2] (setting [6]) were 0.04 g/L and 2.24 g/L, respectively.

The values above are taken from patent US9328369B2, “Process for production of useful substance, and surfactant for use in the process” (priority 2009, dated 2016).
